In patent US6506784B1, “Use of 1,3-substituted pyrazol-5-yl sulfonates as pesticides” (3-Dimensional Pharmaceuticals, Inc., priority 1999, dated 2003) one finds IC50 data, which are given here for 19 compounds.

Broadly, the IC50 is the concentration needed to halve the response being measured. Read a high IC50 as weaker potency.

The target in this experiment is Mouse Brain GABA Receptors. The experiment in a line: In vitro assay of ability to bind mouse brain GABA receptors (3H-EBOB displacement, mouse brain membranes). The conditions noted are these: inhibition of 3H-EBOB binding to mouse brain membranes; NI = non-inhibitor. The protocol:
Mouse brains were obtained from carbon dioxide-asphyxiated Swiss-Webster mice, washed with phosphate-buffered saline, and used either fresh or after storage at −80° C. for up to 10 months. Unless specified, all preparation steps were performed at 0-4° C. For each preparation, 20 brains were suspended in about 40 mL of 0.32 M sucrose and homogenized for about 2 minutes, using a Tissumizer™ homogenizer equipped with a SDT-100EN probe (available from Tekmar-Dohrmann, Cincinnati, Ohio) running at 50% of its maximum speed. The extract was centrifuged for about 5 min at about 1000×g to pellet intact brain tissue. The supernatant was retained and the pellet washed with an additional 40 mL of 0.32 M sucrose and centrifuged at 1000×g for about 5 minutes. The 1000×g supernatants were combined and centrifuged at about 10,000×g for about 20 min to pellet membranes. The 10,000×g supernatant was discarded and the pellet was resuspended in about 20 mL of water containing 1 mM EDTA. The sample was dialyzed two times for about 3 hours each against about 3 L of water. The sample was then centrifuged at about 25,000×g for about 30 min to pellet the membranes. After centrifugation, the supernatant was discarded and the pellet recovered. The protein concentration of the pellet was determined by the Bio-Rad Protein Assay (available from Bio-Rad Laboratories, Hercules, Calif.) using bovine serum albumin as a standard. The membranes were aliquoted and stored at −80° C. for up to 6 months before use.
Mouse brain membranes were prepared as described above from dissected mouse brains. Test compounds were dissolved in dimethylsulfoxide (DMSO) at concentrations ranging from about 2 nM to about 100 mM. About 1 μL of a dissolved test compound was dispensed into a well of a 96-well polystyrene plate. About 100 μL of ice cold assay buffer (10 mM phosphate, 300 mM NaCl, pH 7.5) containing 5.2 nM 4′-Ethynyl-4-n-[2,3-^3H2]propylbicycloorthobenzoate (^3H-EBOB, 38 Ci/mmol, available from NEN Life Science Products, Boston, Mass.) was added to the well, followed by about 100 μL of ice cold assay buffer containing about 0.25-0.5 mg/ml mouse brain membranes. Control wells were prepared the same way except that the mouse brain membranes were omitted from the “negative” wells, and the test compounds were omitted from the “positive” wells. The samples were incubated for about 45 min at about 24° C. and then filtered on a 0.1% (w/v) polyethylenimine-soaked glass fiber Filtermat A (available from EG&G Wallac Inc., Gaithersburg, Md.) followed by four 100 mL rinses of cold assay buffer using a Harvester 96® cell harvester (available from Tomtec, Orange, Conn.). The filtermat was air dried and radioactivity bound to the filtermat was detected with either a 1450 MicroBeta® Trilux scintillation counter (available from EG&G Wallac Inc.) or a Topcount NXT™ scintillation counter (available from Packard Instrument Co., Meriden, Conn.) using standard methods.
Specific binding was considered to be the difference between total ^3H bound to the mouse brain membranes in the absence of any inhibitors and nonspecific ^3H bound to the mouse brain membranes upon the addition of 5 μM unlabeled EBOB. The average radioactivity contained in the “negative” wells was subtracted from each of the assay wells. […] This value was calculated by plotting the data on a log-linear plot and either dropping a line to the x-axis perpendicular to a line drawn to the y-axis at approximately 50% inhibition of ^3H-EBOB binding, or by fitting the data to the formula I=XY/(X+Z), in which I is the percent inhibition of ^3H-EBOB binding, X is the inhibitor concentration, Y is the maximum percent inhibition of ^3H-EBOB binding observed, and Z is the calculated IC50.
Regarding `Cn1nc(C(F)(F)F)cc1OS(=O)(=O)c1cc(Cl)c(Cl)cc1Cl` [compound 1], the concentration for half-maximal inhibition (IC50) was 8.4 µM. This lies in the single-digit micromolar range.
The compound `Cn1nc(C(F)(F)F)cc1OS(=O)(=O)c1ccc(Cl)c(Cl)c1` [compound 2] showed an IC50 of 9 µM.
The result for `Cn1nc(C(F)(F)F)cc1OS(=O)(=O)c1cc(Cl)ccc1Cl` [compound 3] reads 2 µM; that for `Cn1nc(C(F)(F)F)cc1OS(=O)(=O)c1cccc(Cl)c1` [compound 4], 0.5 µM; that for `Cn1nc(C(F)(F)F)cc1OS(=O)(=O)c1ccc(C(F)(F)F)cc1Cl` [compound 5, 1-methyl-3-(trifluoromethyl)pyrazol-5-yl 2-chloro-4-(trifluoromethyl)benzenesulfonate], 14 µM.
Then `Cn1nc(C(F)(F)F)cc1OS(=O)(=O)c1ccc(Br)c(Br)c1` [compound 6], with 12.5 µM.
Then `Cc1cc(S(=O)(=O)Oc2cc(C(F)(F)F)nn2C)ccc1Cl` [compound 7], with 11 µM; and `Cn1nc(C(F)(F)F)cc1OS(=O)(=O)c1cccc(F)c1` [compound 8], with 0.16 µM.
`Cn1nc(C(F)(F)F)cc1OS(=O)(=O)c1c(F)cccc1F` [compound 9] came in with a concentration for half-maximal inhibition (IC50) of 6 µM.
Then `Cn1nc(C(F)(F)F)cc1OS(=O)(=O)c1ccc(F)c(F)c1` [compound 10], with 1 µM; and `Cc1cc(F)ccc1S(=O)(=O)Oc1cc(C(F)(F)F)nn1C` [compound 11], with 3.6 µM; and `Cn1nc(C(F)(F)F)cc1OS(=O)(=O)c1ccc(Cl)cc1Cl` [compound 12, 1-methyl-3-(trifluoromethyl)pyrazol-5-yl 2,4-dichlorobenzenesulfonate], with 4.9 µM.
In turn, `Cn1nc(C(F)(F)F)cc1OS(=O)(=O)c1ccc2ccccc2c1` [compound 13] displayed an IC50 of 3 µM.
`O=S(=O)(Oc1cc(C(F)(F)F)nn1-c1ccccc1)c1ccc(F)c(Cl)c1` [compound 14] showed a half-inhibitory concentration (IC50) of 12 µM. This IC50 is about 4-fold higher than that of the compound before.
`Cc1c(Cl)cccc1S(=O)(=O)Oc1cc(C(F)(F)F)nn1C` [compound 16]: the IC50 is 12 µM.
Consider `Cn1nc(C(C)(C)C)cc1OS(=O)(=O)c1ccc(Cl)cc1Cl` [compound 17], for which the IC50 came to 5.4 µM.
Compound `Cc1nn(-c2ccccc2)c(OS(=O)(=O)c2ccc(F)cc2Cl)c1Cl` [compound 18] displayed a half-maximal inhibitory concentration (IC50) of 1 µM.
For `Cn1nc(C(C)(C)C)cc1OS(=O)(=O)c1ccc(F)cc1Cl` [compound 19], the IC50 worked out at 1.3 µM. This IC50 and that of the compound before are within 1.5-fold of each other.
The result for `Cn1nc(C(F)(F)F)cc1OS(=O)(=O)c1ccc(F)cc1Cl` [compound 20, 1-methyl-3-(trifluoromethyl)pyrazol-5-yl 2-chloro-4-fluorobenzenesulfonate] reads 3.3 µM.
